Literature values, collected in patent US10654893B2, “Self-assembling peptide compositions” (3-D MATRIX, LTD., priority 2014, dated 2020).

Settings: cited from earlier work

SMILES | pKa
N[C@@H](CC(=O)O)C(=O)O [aspartic acid] | 3.71
N[C@@H](CCC(=O)O)C(=O)O [glutamic acid] | 4.15
